Reference: patent publication US20050180971A1, “Cancer therapy” (priority 2002, published 2005)
Several values for one entry are separate records, joined by “and”; a condition that tells them apart may be missing. Equal values may be shown once.

System: AE 17 cells
Assay: Murine mesothelioma model: subcutaneous AE 17 tumor challenge, tumor area by callipers
Format: in vivo, C57/B16 mice
Source text: Malignant mesothelioma in humans is an asbestos induced, incurable tumor that has a particularly poor prognosis. Average time from diagnosis to death being only eight months (Musk and Woodward, 1982). A murine model was developed by researchers in the Department of Medicine at the University of Western Australia to further the development of suitable interventions (Davies et al., 1992).
Day 0 was defined as the day of tumor cell inoculation with 1×10^6 AE 17 cells subcutaneously. The AE 17 tumor cell line was derived from C57/B16 mice and inoculated back into the same strain. This point will be referred to as a tumor challenge henceforth. Three groups of 5 mice were all challenged in this way. Subsequently the first of the groups was given a single ip dose of vinblastine (Vb) at 6 mg/kg body weight exactly 14 days post tumor challenge (Vb 19/11/01 group). The second group of 5 mice were similarly treated the next day; 15 days post tumor challenge (Vb 20/11/01). The third group received no Vb treatment (No treatment/control group).
Tumor measurements were taken from Day 14 onwards with callipers (2 diameters at right angles to each other in mm's). These two diameters are then multiplied together to give a mm^2 value that is known from past experience to correlate well with both tumor volume and tumor mass.

[1] = single ip Vb 6 mg/kg on day 14 post tumor challenge, measured day 14 (19-Nov)
[2] = single ip Vb 6 mg/kg on day 14 post tumor challenge, measured day 15 (20-Nov)
[3] = single ip Vb 6 mg/kg on day 14 post tumor challenge, measured day 18 (23-Nov)
[4] = single ip Vb 6 mg/kg on day 14 post tumor challenge, measured day 21 (26-Nov)
[5] = single ip Vb 6 mg/kg on day 14 post tumor challenge, measured day 24 (29-Nov)
[6] = single ip Vb 6 mg/kg on day 14 post tumor challenge, measured day 25 (30-Nov)
[7] = single ip Vb 6 mg/kg on day 14 post tumor challenge, measured day 28 (3-Dec)
[8] = single ip Vb 6 mg/kg on day 14 post tumor challenge, measured day 30 (5-Dec)
[9] = single ip Vb 6 mg/kg on day 15 post tumor challenge, measured day 14 (19-Nov), before treatment
[10] = single ip Vb 6 mg/kg on day 15 post tumor challenge, measured day 15 (20-Nov)
[11] = single ip Vb 6 mg/kg on day 15 post tumor challenge, measured day 18 (23-Nov)
[12] = single ip Vb 6 mg/kg on day 15 post tumor challenge, measured day 21 (26-Nov)
[13] = single ip Vb 6 mg/kg on day 15 post tumor challenge, measured day 24 (29-Nov)
[14] = single ip Vb 6 mg/kg on day 15 post tumor challenge, measured day 25 (30-Nov)
[15] = single ip Vb 6 mg/kg on day 15 post tumor challenge, measured day 28 (3-Dec)
[16] = single ip Vb 6 mg/kg on day 15 post tumor challenge, measured day 30 (5-Dec)

CC[C@]1(O)C[C@@H]2CN(CCc3c([nH]c4ccccc34)[C@@](C(=O)OC)(c3cc4c(cc3OC)N(C)[C@H]3[C@@](O)(C(=O)OC)[C@H](OC(C)=O)[C@]5(CC)C=CCN6CC[C@]43[C@@H]65)C2)C1 [Vb, vinblastine]
mice with significant tumor development (Vb treatment day 15 post challenge): 4/5
protection from tumor development (single Vb treatment day 14 post challenge): heavily protected from tumor development
effectiveness (single Vb treatment day 14 post challenge, 5 mice): 80%
Tumor area (2 diameters multiplied), individual animal (single ip Vb 6 mg/kg on day 14 post tumor challenge, measured (7-Dec)): 0 mm^2 (4×) and 70 mm^2
Tumor area (2 diameters multiplied), individual animal [1]: 4 mm^2 (4×) and 0.5 mm^2
Tumor area, group mean [1]: 3.3 mm^2
Tumor area (2 diameters multiplied), individual animal [2]: 0.5 mm^2 (3×) and 0 mm^2 (2×)
Tumor area, group mean [2]: 0.3 mm^2
Tumor area (2 diameters multiplied), individual animal [3]: 0 mm^2 (2×) and 2 mm^2 and 1 mm^2 and 0.5 mm^2
Tumor area, group mean [3]: 0.7 mm^2
Tumor area (2 diameters multiplied), individual animal [4]: 0.5 mm^2 (2×) and 1 mm^2 and 0 mm^2 (2×)
Tumor area, group mean [4]: 0.4 mm^2
Tumor area (2 diameters multiplied), individual animal [5]: 0 mm^2 (3×) and 6 mm^2 and 4 mm^2
Tumor area, group mean [5]: 2 mm^2
Tumor area (2 diameters multiplied), individual animal [6]: 0 mm^2 (3×) and 1 mm^2 and 0.5 mm^2
Tumor area, group mean [6]: 0.3 mm^2
Tumor area (2 diameters multiplied), individual animal [7]: 0 mm^2 (3×) and 0.5 mm^2 and 40 mm^2
Tumor area, group mean [7]: 8.1 mm^2
Tumor area (2 diameters multiplied), individual animal [8]: 0 mm^2 (4×) and 70 mm^2
Tumor area, group mean [8]: 14 mm^2
Tumor area, group mean (single ip Vb 6 mg/kg on day 14 post tumor challenge, measured day 32 (7-Dec)): 14 mm^2
Tumor area (2 diameters multiplied), individual animal (single ip Vb 6 mg/kg on day 15 post tumor challenge, measured (7-Dec)): 81 mm^2 and 0.5 mm^2 and 90 mm^2 (2×)
Tumor area (2 diameters multiplied), individual animal [9]: 0.5 mm^2 (3×) and 4 mm^2 and 9 mm^2
Tumor area, group mean [9]: 2.9 mm^2
Tumor area (2 diameters multiplied), individual animal [10]: 1 mm^2 and 0.5 mm^2 (3×) and 0 mm^2
Tumor area, group mean [10]: 0.5 mm^2
Tumor area (2 diameters multiplied), individual animal [11]: 4 mm^2 and 0.5 mm^2 (2×) and 0 mm^2 (2×)
Tumor area, group mean [11]: 1 mm^2
Tumor area (2 diameters multiplied), individual animal [12]: 9 mm^2 and 0.5 mm^2 (3×) and 8 mm^2
Tumor area, group mean [12]: 3.7 mm^2
Tumor area (2 diameters multiplied), individual animal [13]: 16 mm^2 and 0.5 mm^2 and 25 mm^2 and 12 mm^2
Tumor area, group mean [13]: 13.4 mm^2
Tumor area (2 diameters multiplied), individual animal [14]: 20 mm^2 and 0.5 mm^2 and 30 mm^2 and 25 mm^2
Tumor area, group mean [14]: 18.9 mm^2
Tumor area (2 diameters multiplied), individual animal [15]: 42 mm^2 and 0.5 mm^2 and 56 mm^2 and 90 mm^2
Tumor area, group mean [15]: 47.1 mm^2
Tumor area (2 diameters multiplied), individual animal [16]: 56 mm^2 and 0.5 mm^2 and 90 mm^2 (2×)
Tumor area, group mean [16]: 59.1 mm^2
Tumor area, group mean (single ip Vb 6 mg/kg on day 15 post tumor challenge, measured day 32 (7-Dec)): 65.4 mm^2
